For 13 molecules, TGI and GI50 results are on record in PubChem BioAssay (NCI).

Some test systems named below: A549 NSCLC; TK-10 renal; MALME-3M melanoma; OVCAR-3 ovarian; NCI-H226 lung; 786-0 renal; U251 CNS; HCC-2998 colon; MDA-MB-231 breast; NCI/ADR-RES ovarian.
Common to all, as to assay: NCI anticancer screen, dose series, 48 h

“And” between values parts separate entries of the source, which are not always exact repeats. Equal entries are not always repeated.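 The compound was tested at five concentrations on cells cultured in 96-well plates, with a 48-hour exposure period. GI50 marks 50% less growth. At the TGI there is no net growth.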

Consider `CCCCCCCCCCCCCP(=O)(OC)OC`, for which the TGI with A549 NSCLC came out at 36.9 µM; with TK-10 renal, 31.6 µM; in the experiment on MALME-3M melanoma, 38.3 µM; in the experiment on OVCAR-3 ovarian, 34.6 µM; with NCI-H226 lung, 35.9 µM; with 786-0 renal, 33.7 µM. In addition, the TGI in the experiment with U251 CNS is 32.9 µM; with HCC-2998 colon it was 36 µM.

As for `Cc1ccc(-c2nc3ccccc3c(=O)n2NC2OC(CO)C(O)C(O)C2O)cc1` (configuration not stated), the TGI in the experiment on A549 NSCLC, in the experiment on TK-10 renal, with MALME-3M melanoma, in the experiment on OVCAR-3 ovarian, in the experiment on NCI-H226 lung and in the experiment on 786-0 renal was over 100 µM in each case. For the same molecule, the TGI with U251 CNS and in the experiment with HCC-2998 colon was over 100 µM throughout.

Regarding `CCCCCC1CC=CC(NC(=O)OCc2ccccc2)C1/C=C/CCCC1OCCO1` (configuration not stated), the TGI in the experiment with A549 NSCLC, in the experiment on TK-10 renal, in the experiment on MALME-3M melanoma, in the experiment on OVCAR-3 ovarian, in the experiment on NCI-H226 lung and with 786-0 renal was over 100 µM throughout. The TGI in the experiment on U251 CNS and in the experiment on HCC-2998 colon was over 100 µM in each case.

In the case of `CCOP(=O)(OCC)C(NC(c1ccccc1)c1ccccc1)c1ccsc1` (configuration not stated), the GI50 in the experiment with MDA-MB-231 breast was 7.05 µM; in the experiment with A549 NSCLC, 24.7 µM; with TK-10 renal, 16.1 µM; in the experiment on OVCAR-3 ovarian, 16.1 µM; with NCI-H226 lung, 13.7 µM; in the experiment with NCI/ADR-RES ovarian, 14.4 µM. In addition, in the experiment on 786-0 renal, the GI50 was 17.2 µM. Besides, the TGI in the experiment on MDA-MB-231 breast worked out at 20.5 µM; in the experiment on A549 NSCLC, 76.9 µM; with TK-10 renal, 32.2 µM; in the experiment on OVCAR-3 ovarian, 32.2 µM; with NCI-H226 lung, 28.8 µM; in the experiment with NCI/ADR-RES ovarian, 29.7 µM. Moreover, the TGI in the experiment with 786-0 renal came out at 31.4 µM.

Turning to `C=C1C(=O)O[C@H]2C3OC3(C)CC/C=C(/C(=O)OC)[C@@H](OC(C)=O)[C@H](OC(=O)C3(C)OC3C)[C@H]12` (some centres not stated), the GI50 is 1.23 µM in the experiment with MDA-MB-231 breast; 9.7 µM and 12.5 µM and 5.5 µg/mL in the experiment on A549 NSCLC; 1.63 µM and 3.42 µM and 0.719 µg/mL with TK-10 renal; 1.25 µM and 0.257 µM with MALME-3M melanoma; 1.37 µM and 0.984 µg/mL in the experiment on OVCAR-3 ovarian; 1.6 µM and 8.12 µg/mL with NCI-H226 lung. Also, the GI50 in the experiment with 786-0 renal was 1.65 µM and 362 nM and 1.26 µg/mL; in the experiment with U251 CNS, 3.73 µM and 5.25 µg/mL; in the experiment with HCC-2998 colon it was 3.65 µM and 2.5 µg/mL. For the same molecule, the TGI in the experiment with MDA-MB-231 breast is 5.9 µM and 4.71 µM; in the experiment with A549 NSCLC it was 31.6 µM and 17.5 µg/mL; in the experiment with TK-10 renal, 3.24 µM and 9.88 µM and 2.43 µg/mL; in the experiment with MALME-3M melanoma it was 4.35 µM and 0.941 µM; in the experiment with OVCAR-3 ovarian, 4.07 µM and 3.13 µg/mL; in the experiment with NCI-H226 lung, 3.25 µM and 31 µg/mL. Besides, the TGI in the experiment with 786-0 renal is 3.73 µM and 8.4 µM and 3.45 µg/mL; in the experiment with U251 CNS, 12.7 µM and 14.9 µg/mL; in the experiment with HCC-2998 colon, 12.4 µM and 4.62 µg/mL.

For the molecule `CC(=O)OC(C)(C)C[N+](=O)[O-]`, the TGI in the experiment with A549 NSCLC, with TK-10 renal, with MALME-3M melanoma, in the experiment with OVCAR-3 ovarian, in the experiment with NCI-H226 lung and in the experiment on 786-0 renal was over 100 µM each time. Moreover, the TGI with U251 CNS and with HCC-2998 colon was over 100 µM in each case.

`CCCCCCCCCCCCCC(=O)NO`: the TGI is over 100 µM with MDA-MB-231 breast; 42.9 µM with A549 NSCLC; 59.4 µM in the experiment on TK-10 renal; 83.8 µM with MALME-3M melanoma; 28 µM in the experiment on OVCAR-3 ovarian; 19 µM with NCI-H226 lung. For the same molecule, the TGI was found to be 18.2 µM in the experiment with 786-0 renal, 33.8 µM with U251 CNS and 28.7 µM in the experiment on HCC-2998 colon.

In the case of `COC(=O)/C(=N\Nc1nc(=S)[nH]n1N)C(C#N)c1ccc(Cl)cc1` (configuration not stated), the TGI in the experiment on A549 NSCLC, with TK-10 renal, in the experiment with MALME-3M melanoma, in the experiment on OVCAR-3 ovarian, in the experiment with NCI-H226 lung and with 786-0 renal was over 100 µM each time. In addition, the TGI with U251 CNS and in the experiment on HCC-2998 colon was over 100 µM each time.

As to `CCN(CC)CCCNc1nccc2c(C)c3[nH]c4ccncc4c(=O)c3cc12`, the TGI in the experiment with A549 NSCLC was 14.2 µM; in the experiment on TK-10 renal, 22.5 µM; in the experiment with MALME-3M melanoma, 14.8 µM; with OVCAR-3 ovarian it was 8.88 µM; in the experiment on NCI-H226 lung, 10.2 µM; with 786-0 renal, 11.9 µM. Moreover, the TGI in the experiment on U251 CNS came out at 11.8 µM; in the experiment with HCC-2998 colon, 13.4 µM.

As to `c1ccc(N2CCN(CCCN3CCc4c([nH]c5ccccc45)C3c3cccnc3)CC2)cc1` (configuration not stated), the TGI is over 100 µM with A549 NSCLC; over 100 µM in the experiment with TK-10 renal; over 77.3 µM in the experiment on MALME-3M melanoma; over 100 µM in the experiment on OVCAR-3 ovarian; over 100 µM in the experiment on NCI-H226 lung; over 100 µM in the experiment with 786-0 renal. For the same molecule, the results for the TGI with U251 CNS and with HCC-2998 colon were over 31.6 µM and over 100 µM, respectively.

As for `CCC1=CCC(P(=O)(c2ccccc2)c2ccccc2)CC1C` (configuration not stated), the TGI with A549 NSCLC, in the experiment on TK-10 renal, in the experiment with MALME-3M melanoma, in the experiment on OVCAR-3 ovarian, in the experiment with NCI-H226 lung and with 786-0 renal was over 100 µM throughout. The TGI in the experiment with U251 CNS is over 100 µM.

As for `CC[C@@]1(O)C(=O)OCc2c1cc1n(c2=O)Cc2cc3cccc(N)c3nc2-1`, the GI50 with A549 NSCLC is 7.32 µM; with TK-10 renal, over 100 µM; in the experiment with MALME-3M melanoma, 84.5 µM; in the experiment with OVCAR-3 ovarian, 66.8 µM; in the experiment with NCI-H226 lung, 2.57 µM; with 786-0 renal, 2.38 µM. Moreover, the values for the GI50 in the experiment with U251 CNS and in the experiment on HCC-2998 colon were 3.03 µM and 16.6 µM, respectively. The TGI in the experiment with A549 NSCLC is over 100 µM; in the experiment with TK-10 renal, over 100 µM; with MALME-3M melanoma, over 100 µM; in the experiment on OVCAR-3 ovarian, over 100 µM; in the experiment with NCI-H226 lung, 27.9 µM; with 786-0 renal, 8.72 µM. In addition, the TGI is 18.8 µM in the experiment with U251 CNS and 48.1 µM in the experiment with HCC-2998 colon.

Turning to `C=C(C)C1CC=C(C)C(O)([C@@]2(O)C[C@H](C(=C)C)CC=C2C)C1` (some centres not stated), the TGI with A549 NSCLC was over 100 µM; in the experiment with TK-10 renal it was over 100 µM; with MALME-3M melanoma, 81.8 µM; in the experiment with OVCAR-3 ovarian, 29.6 µM; in the experiment with 786-0 renal, 31.3 µM; in the experiment with U251 CNS, 34.7 µM. The same molecule registered a TGI in the experiment with HCC-2998 colon of 35.7 µM.
